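Each compound was tested at five concentrations against cells in 96-well plates for 48 hours. The concentration for 50% growth inhibition is given as GI50.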 Activity calls are given as the source filed them. No stated cut-off is given here; in the data, active = GI50 up to about 1.1 µM and inactive = higher.
Columns and labels:
Assay in all cases: inhibition of tumour cell growth, NCI panel, 48 h
786-0 = tested on: 786-0
CAKI-1 = tested on: CAKI-1
EKVX = tested on: EKVX
HCT-15 = tested on: HCT-15
HOP-62 = tested on: HOP-62
Hs-578T = tested on: Hs-578T
IGROV-1 = tested on: IGROV-1
LOX IMVI = tested on: LOX IMVI
M14 = tested on: M14
MDA-N = tested on: MDA-N
Malme-3M = tested on: Malme-3M
NCI-H226 = tested on: NCI-H226
NCI-H522 = tested on: NCI-H522
OVCAR-3 = tested on: OVCAR-3
OVCAR-4 = tested on: OVCAR-4
OVCAR-5 = tested on: OVCAR-5
SF-295 = tested on: SF-295
SK-MEL-5 = tested on: SK-MEL-5
UACC-257 = tested on: UACC-257
UACC-62 = tested on: UACC-62

Compound	GI50 (786-0)	GI50 (CAKI-1)	GI50 (EKVX)	GI50 (HCT-15)	GI50 (HOP-62)	GI50 (Hs-578T)	GI50 (IGROV-1)	GI50 (LOX IMVI)	GI50 (M14)	GI50 (MDA-N)	GI50 (Malme-3M)	GI50 (NCI-H226)	GI50 (NCI-H522)	GI50 (OVCAR-3)	GI50 (OVCAR-4)	GI50 (OVCAR-5)	GI50 (SF-295)	GI50 (SK-MEL-5)	GI50 (UACC-257)	GI50 (UACC-62)
COc1c2c(c3c(c1CCC(=O)O)OC(C)(C)C=C3)OC(C)(C)C=C2	> 100 µM (inactive)	> 100 µM (inactive)	74.3 µM (inactive)	> 100 µM	> 100 µM (inactive)	83.8 µM (inactive)	> 100 µM (inactive)	> 100 µM (inactive)	> 100 µM (inactive)	31.4 µM (inactive)	> 100 µM (inactive)	83.4 µM (inactive)	55.1 µM (inactive)	58.7 µM (inactive)	> 100 µM (inactive)	> 100 µM (inactive)	> 100 µM (inactive)	65.2 µM (inactive)	> 100 µM (inactive)	> 100 µM (inactive)
CCOC(=O)C1=CC(C)(C(=O)OCC)Nc2c(nc(OC)n(C)c2=O)N1 (centres undefined)	> 10 µM (inactive)	> 10 µM (inactive)	> 10 µM (inactive)	> 10 µM	> 10 µM (inactive)	> 10 µM (inactive)	> 10 µM (inactive)	> 10 µM (inactive)	> 10 µM (inactive)	> 10 µM (inactive)	> 10 µM (inactive)	> 10 µM (inactive)	> 10 µM (inactive)	> 10 µM (inactive)	> 10 µM (inactive)	> 10 µM (inactive)	> 10 µM (inactive)	> 10 µM (inactive)	> 10 µM (inactive)	–
O=[N+]([O-])/C(Cl)=C(/C(Cl)=C(Cl)Cl)N1CCOCC1	2.92 µM (inactive)	4.34 µM (inactive)	6.53 µM (inactive)	1.56 µM	–	3.8 µM (inactive)	1.92 µM (inactive)	3.66 µM (inactive)	2.36 µM (inactive)	2.32 µM (inactive)	1.44 µM (inactive)	16.4 µM (inactive)	2 µM (inactive)	2.13 µM (inactive)	5.51 µM (inactive)	7.93 µM (inactive)	11.5 µM (inactive)	1.65 µM (inactive)	2.99 µM (inactive)	1.92 µM (inactive)
CC(=O)Nc1ccc2nc(-c3ccccn3)c(-c3ccccn3)nc2c1	> 100 µM (inactive)	> 100 µM (inactive)	> 100 µM (inactive)	> 100 µM	–	> 100 µM (inactive)	> 100 µM (inactive)	> 100 µM (inactive)	> 100 µM (inactive)	> 100 µM (inactive)	> 100 µM (inactive)	> 100 µM (inactive)	> 100 µM (inactive)	> 100 µM (inactive)	> 100 µM (inactive)	> 100 µM (inactive)	> 100 µM (inactive)	> 100 µM (inactive)	> 100 µM (inactive)	> 100 µM (inactive)
CC(=O)OCCn1c(Cc2ccc(Cl)cc2)nn(C(C)=O)c1=O	> 100 µM (inactive)	> 100 µM (inactive)	> 100 µM (inactive)	> 100 µM	–	> 100 µM (inactive)	> 100 µM (inactive)	> 100 µM (inactive)	> 100 µM (inactive)	> 100 µM (inactive)	> 100 µM (inactive)	> 100 µM (inactive)	> 100 µM (inactive)	> 100 µM (inactive)	> 100 µM (inactive)	> 100 µM (inactive)	> 100 µM (inactive)	> 100 µM (inactive)	> 100 µM (inactive)	> 100 µM (inactive)
CC(C)OC(=O)C1=C2c3ncccc3C(=O)N2[C@@H](Cl)[C@H](Cl)[C@H]1Cl	55.2 µM (inactive)	> 100 µM (inactive)	> 100 µM (inactive)	70.3 µM	> 100 µM (inactive)	> 100 µM (inactive)	31.1 µM (inactive)	68.9 µM (inactive)	> 100 µM (inactive)	50.9 µM (inactive)	28.8 µM (inactive)	> 100 µM (inactive)	26.2 µM (inactive)	> 100 µM (inactive)	> 100 µM (inactive)	> 100 µM (inactive)	> 100 µM (inactive)	83 µM (inactive)	34 µM (inactive)	> 100 µM (inactive)
NC1=C(N2CCOCC2)C(=O)NC2=N/C(=C\c3ccccc3O)C(=O)N21	> 100 µM (inactive)	> 100 µM (inactive)	> 100 µM (inactive)	51.1 µM	–	> 100 µM (inactive)	> 100 µM (inactive)	> 100 µM (inactive)	> 100 µM (inactive)	> 100 µM (inactive)	84.3 µM (inactive)	59.6 µM (inactive)	76.2 µM (inactive)	–	13.5 µM (inactive)	> 100 µM (inactive)	> 100 µM (inactive)	73.6 µM (inactive)	> 100 µM (inactive)	–
COC(=O)/C(C#N)=C(\Nc1ccccc1)N1CCCCC1	> 100 µM (inactive)	> 100 µM (inactive)	> 100 µM (inactive)	> 100 µM	> 100 µM (inactive)	> 100 µM (inactive)	> 100 µM (inactive)	> 100 µM (inactive)	> 100 µM (inactive)	> 100 µM (inactive)	> 100 µM (inactive)	> 100 µM (inactive)	> 100 µM (inactive)	> 100 µM (inactive)	> 100 µM (inactive)	> 100 µM (inactive)	> 100 µM (inactive)	> 100 µM (inactive)	> 100 µM (inactive)	–
COC1(OC)N=C(N)C2(C#N)C(c3ccccc3)NC3=C(CCC3)C12C#N (centres undefined)	> 100 µM (inactive)	> 100 µM (inactive)	> 100 µM (inactive)	> 100 µM	> 100 µM (inactive)	> 100 µM (inactive)	> 100 µM (inactive)	> 100 µM (inactive)	> 100 µM (inactive)	> 100 µM (inactive)	> 100 µM (inactive)	> 100 µM (inactive)	> 100 µM (inactive)	–	> 100 µM (inactive)	> 100 µM (inactive)	> 100 µM (inactive)	> 100 µM (inactive)	> 100 µM (inactive)	> 100 µM (inactive)
CC(C)CCOC(=O)NC(Nc1ccc(F)cc1)(C(F)(F)F)C(F)(F)F	> 100 µM (inactive)	19.5 µM (inactive)	60.7 µM (inactive)	1.68 µM	37.2 µM (inactive)	> 100 µM (inactive)	38.2 µM (inactive)	40.9 µM (inactive)	6.62 µM (inactive)	2.81 µM (inactive)	> 100 µM (inactive)	> 100 µM (inactive)	25.8 µM (inactive)	37.4 µM (inactive)	–	97.3 µM (inactive)	> 100 µM (inactive)	12.6 µM (inactive)	> 100 µM (inactive)	0.279 µM (active)
CC(C)CCn1nc(N)c2nc3ccccc3nc21	> 100 µM (inactive)	64.4 µM (inactive)	> 100 µM (inactive)	> 10 µM	> 100 µM (inactive)	> 100 µM (inactive)	> 100 µM (inactive)	> 100 µM (inactive)	> 100 µM (inactive)	> 100 µM (inactive)	> 100 µM (inactive)	61.8 µM (inactive)	> 100 µM (inactive)	> 100 µM (inactive)	> 100 µM (inactive)	> 100 µM (inactive)	> 100 µM (inactive)	–	> 100 µM (inactive)	> 100 µM (inactive)
CCN(CC)CCN1C(=O)C(=O)N(c2cccc3ccccc23)C1=O	–	> 10 µM (inactive)	> 10 µM (inactive)	> 10 µM	> 10 µM (inactive)	8.65 µM (inactive)	> 10 µM (inactive)	> 10 µM (inactive)	> 10 µM (inactive)	> 10 µM (inactive)	> 10 µM (inactive)	> 10 µM (inactive)	> 10 µM (inactive)	> 10 µM (inactive)	> 10 µM (inactive)	> 10 µM (inactive)	> 10 µM (inactive)	> 10 µM (inactive)	–	> 10 µM (inactive)
O=c1[nH]c(=O)n(C2OC(CO)C(O)C2O)cc1Oc1ccccc1 (centres undefined)	> 100 µM (inactive)	> 100 µM (inactive)	> 100 µM (inactive)	> 100 µM	> 100 µM (inactive)	98.9 µM (inactive)	> 100 µM (inactive)	> 100 µM (inactive)	> 100 µM (inactive)	> 100 µM (inactive)	> 100 µM (inactive)	> 100 µM (inactive)	> 100 µM (inactive)	> 100 µM (inactive)	> 100 µM (inactive)	> 100 µM (inactive)	> 100 µM (inactive)	> 100 µM (inactive)	> 100 µM (inactive)	> 100 µM (inactive)
CCOC(=O)C(C)c1nc2cc(F)c(N3CCOCC3)cc2[nH]c1=O (centres undefined)	> 100 µM (inactive)	> 100 µM (inactive)	> 100 µM (inactive)	> 100 µM	> 100 µM (inactive)	> 100 µM (inactive)	> 100 µM (inactive)	–	> 100 µM (inactive)	> 100 µM (inactive)	> 100 µM (inactive)	> 100 µM (inactive)	> 100 µM (inactive)	> 100 µM (inactive)	> 100 µM (inactive)	> 100 µM (inactive)	> 100 µM (inactive)	54.1 µM (inactive)	> 100 µM (inactive)	> 100 µM (inactive)
[O-][S+](Nc1ccccc1)c1ccccc1Oc1ccccc1 (centres undefined)	24.7 µM (inactive)	39.8 µM (inactive)	26 µM (inactive)	27.7 µM	32.7 µM (inactive)	2.84 µM (inactive)	2.62 µM (inactive)	19.7 µM (inactive)	24.5 µM (inactive)	57.1 µM (inactive)	30.5 µM (inactive)	30.4 µM (inactive)	25 µM (inactive)	92.9 µM (inactive)	–	> 100 µM (inactive)	28.2 µM (inactive)	30.5 µM (inactive)	51.2 µM (inactive)	–

From ChEMBL document CHEMBL1201862, “PubChem BioAssay data set” (2004)
